According to US20260258050A1, “IMMUNOMODULATOR” (HITGEN INC., priority 2023, published 2026):

target: T1, Human IL-17A (Homo sapiens, UniProt Q16552); assay: IL-17A enzyme-linked immunosorbent assay (competitive ELISA, IL-17A/IL-17Ra receptor-ligand binding); parameters: purchased Sino Biological Inc. 12047-H07B; details: human IL-17A coated plate, human IL-17Ra, read-out: IC50, inhibitory activity of compounds on human IL-17A
T1 sequence (Q16552 20-155 limits assumed): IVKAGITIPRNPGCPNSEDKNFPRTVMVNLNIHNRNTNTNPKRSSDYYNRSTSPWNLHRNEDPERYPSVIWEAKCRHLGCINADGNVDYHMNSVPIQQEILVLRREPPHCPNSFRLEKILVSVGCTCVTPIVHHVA
Experimental: Experimental Example 1 IL-17A Enzyme-Linked Immunosorbent Assay (ELISA)
The inhibitory effects of human IL-17A inhibitors on receptor-ligand binding were quantitatively determined by a competitive enzyme-linked immunosorbent assay (ELISA). The ELISA was performed through the following steps.
Human IL-17A (Sino Biological Inc., Cat #12047-H07B) was diluted with coating buffer (50 mM phosphate-buffered saline (PBS), pH 7.4) to give an IL-17A concentration of 0.2 μg/ml. 100 μL of the resulting solution was added to each well of a 96-well plate, and the plate was incubated at 37° C. for 30 min. In a blank group, 100 100 μL of the coating buffer was added instead of the IL-17A solution.
The plate was washed four times with 10 mM phosphate-buffered saline containing 0.05% Tween-20 (PBST, pH 7.4). 200 μL of PBST was used per well for each wash. After the final wash, the plate was tapped dry on absorbent paper.
Fresh 5% (w/v) skim milk solution was prepared before the experiment. For example, 5 g of skim milk powder (Bio-Rad, 170-6404) was completely dissolved in 100 mL of 10 mM PBST. 200 μL of the 5% (w/v) skim milk solution was added to each well, and the plate was incubated on a shaker at 25° C. for 30 min.
(S4) Preparation of 100× to-be-Tested Compound Solutions
During step (S3), the to-be-tested compound solutions were prepared, respectively. Each powdered compound was dissolved in dimethyl sulfoxide (DMSO) to reach a storage concentration of 10 mM. The to-be-tested compound solutions were then serially diluted four-fold with DMSO to obtain nine storage concentrations ranging from […].
(S6) Pre-incubation of IL-17A with to-be-tested compound solutions
89 μL of PBST and 1 μL of each of the to-be-tested compound solutions were added to each well and mixed. The plate was pre-incubated at 25° C. for 10 min. In the blank group and the control group, 1 μL of DMSO was added instead of the to-be-tested compound solutions.
(S7) Incubation with Human Interleukin-17 Receptor a (IL-17Ra)
10 μL of 16 nM human IL-17Ra (Sino Biological Inc., Cat #10895-H03H) was added, followed by incubation on a shaker at 25° C. for 30 min. The receptor solution was prepared in 10 mM PBST.
(S9) Incubation with Horseradish Peroxidase-Conjugated Antibody
100 μL of mouse anti-Fc tag horseradish peroxidase (HRP)-conjugated antibody (Sino Biological Inc., Cat #10702-MM01T-H) was added to each well. The plate was incubated on a shaker at 25° C. for 30 min. The antibody was diluted with 5% (w/v) skim milk solution at 1:5,000 (v/v).
100 μL of 3,3′,5,5′-tetramethylbenzidine (TMB) substrate solution (BD, Cat #555214) was added to each well. Substrate A and substrate B were freshly mixed at a volume ratio of 1:1 before use. The plate was incubated in the dark at 25° C. for 5-15 min.
(S12) Termination and Detection
The color reaction was terminated by addition of 2.5 M hydrochloric acid (HCl). Absorbance was measured at 450 nm using a BMG PHERStar microplate reader.
(S13) Calculation of Half-Maximal Inhibitory Concentration (IC50)
The relative percent residual activity at each compound concentration was calculated according to Equation 1. The IC50 value of each test compound was then calculated in GraphPad 6 using the equation for log(inhibitor) versus normalized response with variable slope, as shown in Equation 2.
relative percent residual activity (%)=[(absorbance of sample−absorbance of blank group)/(absorbance of control group−absorbance of blank group)]%. Equation 1: […]
The compounds prepared in the above examples were tested for IL-17A inhibitory activity according to the above method.

SMILES	IC50
Cc1[nH]nc2c1-c1cc(F)c(NC(=O)[C@@H](NC(=O)c3ccnn3C(CF)CF)C(C3CC3)C3CC3)cc1COCC2 [compound 95]	≤ 50 nM
Cc1[nH]nc2c1-c1cc(F)c(NC(=O)[C@@H](NC(=O)c3ccnn3CCOC(F)F)C(C3CC3)C3CC3)cc1COCC2 [compound 107]	≤ 50 nM
Cc1[nH]nc2c1-c1cc(F)c(NC(=O)[C@@H](NC(=O)c3ccnc(CC(F)(F)F)c3)C(C3CC3)C3CC3)cc1COCC2 [compound 109]	50 to 150 nM
Cc1[nH]nc2c1-c1cc(F)c(NC(=O)[C@@H](NC(=O)c3ccnn3C3CSC3)C(C3CC3)C3CC3)cc1COCC2 [compound 112]	≤ 50 nM
COC(=O)N[C@H](C(=O)Nc1cc2c(cc1F)-c1c(n[nH]c1C)CCOC2)C(C1CC1)C1CC1 [compound 121]	50 to 150 nM
Cc1[nH]nc2c1-c1cc(F)c(NC(=O)[C@@H](NC(=O)C3(F)CC3)C(C3CC3)C3CC3)cc1COCC2 [compound 122]	50 to 150 nM
Cc1[nH]nc2c1-c1cnc(NC(=O)[C@@H](NC(=O)c3ccnn3C(C)C)C(C3CC3)C3CC3)c(F)c1COCC2 [compound 128]	≤ 50 nM
Cc1[nH]nc2c1-c1cc(F)c(NC(=O)[C@@H](NC(=O)c3ccnn3C(C)C)C(C3CC3)C3CC3)cc1C/C=C\C2 [compound 129]	≤ 50 nM
Cc1[nH]nc2c1-c1cc(F)c(NC(=O)[C@@H](NC(=O)c3ccnn3C3CC3)C(C3CC3)C3CC3)cc1CN(C)C(=O)C2 [compound 135]	≤ 50 nM
COCCN1Cc2cc(NC(=O)[C@@H](NC(=O)c3ccnn3[C@@H](C)CO)C(C3CC3)C3CC3)c(F)cc2-c2c(n[nH]c2C)CC1=O [compound 140]	≤ 50 nM
COCCN1Cc2cc(NC(=O)[C@@H](NC(=O)c3nonc3C)C(C3CC3)C3CC3)c(F)cc2-c2c(n[nH]c2C)CC1=O [compound 141]	≤ 50 nM

Other lines, results leading:

IC50	SMILES
50 to 150 nM	CCn1nccc1C(=O)N[C@H](C(=O)Nc1cc2c(cc1F)-c1c(n[nH]c1C)CCN(C)C2)C(C1CC1)C1CC1 [compound 155]
≤ 50 nM	Cc1[nH]nc2c1-c1cc(F)c(NC(=O)[C@@H](NC(=O)c3ccnn3C(C)C)C(C3CC3)C3CC3)cc1CN(C1CCC1)CC2 [compound 177]
≤ 50 nM	Cc1[nH]nc2c1-c1cc(F)c(NC(=O)[C@@H](NC(=O)c3ccnn3C(C)C)C(C3CC3)C3CC3)cc1CN(CC#N)CC2 [compound 179]
≤ 50 nM	Cc1[nH]nc2c1-c1cnc(NC(=O)[C@@H](NC(=O)c3ccnn3C(C)C)C(C3CC3)C3CC3)cc1CN(C1CC(F)(F)C1)CC2 [compound 203]
≤ 50 nM	Cc1[nH]nc2c1-c1cnc(NC(=O)[C@@H](NC(=O)c3ccnn3C(C)C)C(C3CC3)C3CC3)cc1CN(C(C)(C)C(F)(F)F)C(=O)C2 [compound 206]
≤ 50 nM	Cc1[nH]nc2c1-c1cc(F)c(NC(=O)[C@@H](NC(=O)c3ccnn3C(C)C)C(C3CC3)C3CC3)cc1CN(C(C)(C)C(F)(F)F)C(=O)C2 [compound 207]
≤ 50 nM	Cc1[nH]nc2c1-c1cnc(NC(=O)[C@@H](NC(=O)c3ccnn3C(C)C)C(C3CC3)C3CC3)cc1CN(C1(C(F)(F)F)CC1)C(=O)C2 [compound 208]
≤ 50 nM	Cc1[nH]nc2c1-c1cc(F)c(NC(=O)[C@@H](NC(=O)c3ccnn3C(C)C)C(C3CC3)C3CC3)cc1CN(C1(C(F)(F)F)CC1)C(=O)C2 [compound 209]
≤ 50 nM	Cc1[nH]nc2c1-c1cnc(NC(=O)[C@@H](NC(=O)c3ccnn3C(C)C)C(C3CC3)C3CC3)cc1CN(C(C)(C)C(F)(F)F)CC2 [compound 210]
≤ 50 nM	Cc1[nH]nc2c1-c1cc(F)c(NC(=O)[C@@H](NC(=O)c3ccnn3C(C)C)C(C3CC3)C3CC3)cc1CN(C(C)(C)C(F)(F)F)CC2 [compound 211]
≤ 50 nM	Cc1[nH]nc2c1-c1cnc(NC(=O)[C@@H](NC(=O)c3ccnn3C(C)C)C(C3CC3)C3CC3)cc1CN(C1(C(F)(F)F)CC1)CC2 [compound 212]
≤ 50 nM	Cc1[nH]nc2c1-c1cc(F)c(NC(=O)[C@@H](NC(=O)c3ccnn3C(C)C)C(C3CC3)C3CC3)cc1CN(C1(C(F)(F)F)CC1)CC2 [compound 213]
